Patent US12297171B2, “EP2 antagonist compounds” (Reservoir Neuroscience, Inc., priority 2021, dated 2025)

Columns and labels:
[1] = molecular target: T1, EP2 receptor (Homo sapiens, UniProt P43116); assay: EP2 potency assay (cAMP TR-FRET, LANCE Ultra cAMP kit, antagonism of prostaglandin E2 at EC80); type: cell-based; conditions: CHO-K1 cells transfected with EP2 receptor
T1 construct: expressed in transfected cells; host or cells: CHO-K1 cells (ATCC), transiently transfected with FuGENE 6
Method: Compound potency was measured using a cAMP TR-FRET assay.
CHO-K1 cells (ATCC) were seeded at a density of 9.75×10^5 in 6 cm plates, and then on the following day cell media was changed to Opti-Mem I reduced serum media (Gibco), and transfected with a plasmid for expression of the EP2 receptor (the target receptor of interest), using the FuGENE 6 Transfection reagent (Promega). After 6 hours incubation, the cell media was replaced with F12 medium supplemented with 10% FBS and 100 U/ml Pen-Strep. 24 hours after transfection, cells were harvested and seeded at a density of 3000 cells/well in a 384 well plate to perform the cAMP assay, using the LANCE Ultra cAMP assay kit (PerkinElmer).
For each test compound of interest, 10 nl/well of serially diluted test compound was added to each well, resulting in a range of 10 serially diluted compound concentrations from 10000 nM to 0.038 nM, with duplicate wells for each concentration. Plates were then centrifuged at 1000 rpm for 1 min, agitated at 600 rpm at R.T. for 2 min, and incubated at 25° C. for 5 min. The reference agonist, prostaglandin E2 (MCE), was added to each well at the appropriate concentration to reach its EC80 value. Plates were then centrifuged at 1000 rpm for 1 min, agitated at 600 rpm at R.T. for 2 min, and incubated at 25° C. for 30 min.
To measure levels of cAMP, 5 μl/well of Eu-cAMP working solution and 5 μl/well of Ulight-anti-cAMP working solution were added to each well, and plate was centrifuged at 1000 rpm for 1 min, agitated at 600 rpm at R.T. for 2 min, and incubated at 25° C. for 15 min. Levels of TR-FRET fluorescence were measured in each well using an EnVision microplate reader (excitation wavelength=337 nm and emission wavelength=615 and 665 nm). A dose-response curve was prepared by plotting percent inhibition for each compound concentration, and then IC50 was calculated by fitting a curve to the plotted values and extrapolating the IC50 concentration.
Potency data is grouped into categories of AA (IC50<100 nM); A (IC50=100 to 500 nM); B (IC50=500 nM to 1 μM); C (IC50=1 μM to 5 μM); and D (IC50>5 μM).

[2] = Human liver microsome stability; type: in vitro ADME; conditions: human liver microsomes 0.5 mg/mL, 37° C., 60 minutes; for half-life at 2 μM: read-out: T1/2 (microsomal); for microsomal CLint at 2 μM: read-out: in vitro CLint (microsomal)
Method: The tested compound was incubated in duplicate with human liver microsomes (0.5 mg/mL) at 37° C. These incubations were carried out at a final test article concentration of 2 μM over a total incubation period of 60 minutes. Samples were taken at 0, 15, 30, 45 and 60 min and the reaction terminated by addition of 4 volumes of acetonitrile containing internal standard (100 nM alprazolam, 200 nM imipramine, 200 nM labetalol and 2 μM ketoprofen). Diclofenac was used as a positive control in this study. The samples were analyzed by UPLC-MS/MS to determine the concentration of the test compound and the percent remaining, intrinsic clearance (in vitro CLint) and half-life (t1/2) values were calculated.
(§1) Chromatographic analyses were performed on a Shimadzu UPLC apparatus (Kyoto, Japan) consisting of a gradient pump (model LC-30AD), an automatic injector (model HTC PAL System) and an on-line degasser (model DGU-20A5R). Detection was a triple quadrupole tandem mass spectrometer equipped with a turbo ion spray interface (API 4000/Triple Quad 4500/Triple Quad 5500/Triple Quad 6500). Data acquisition and integration were carried out with LC-MS software (Analyst 1.6) linked directly to the LC-MS/MS system. Chromatographic separations were achieved on a XSelect Hss T3 2.5μ (2.1×30 mm) Column. The mobile phase was 0.1% formic acid in water (A) and 0.1% formic acid in acetonitrile (B). The flow rate was 1.0 mL/min and column was maintained at 40° C.
(§2) Half-life (T1/2) data is measured in minutes, and in Table B2, in both microsomal and hepatic assays, the data is grouped into categories of: • A T1/2=1000+ • B T1/2=500 to 1000 • C T1/2=100 to 500 • D T1/2<100
(§3) In vitro clearance (CLint) data is measured in μL/min/mg prot, and in Table B2, in both microsomal and hepatic assays, the data is grouped into categories of: • A CLint<1 • B CLint=1 to 10 • C CLint=10 to 20 • D CLint=20+

[3] = Human hepatocyte stability; type: in vitro ADME; conditions: human hepatocytes 0.5×10^6 cells/mL, 120 minutes; for half-life at 1 μM: read-out: T1/2 (hepatic); for microsomal CLint at 1 μM: read-out: in vitro CLint (hepatic)
Method: The tested compound was incubated in duplicate with incubation media (Williams' Medium E with 1× GlutaMAX) containing human hepatocytes (0.5×10^6 cells/mL). These incubations were carried out at a final test concentration of 1 μM over a total incubation period of 120 minutes. Samples were taken at 0, 15, 30, 60, 90 and 120 min and the reaction was terminated by addition of acetonitrile containing internal standard (100 nM alprazolam, 200 nM labetalol, 200 nM caffeine and 200 nM diclofenac). Verapamil was used as the positive control in this study. The samples were analyzed by UPLC-MS/MS to determine the concentration of the tested compound and the percentage remaining, intrinsic clearance (in vitro CLint) and half-life (t1/2) values were calculated.
as §1, §2, §3

T1 sequence (P43116 whole entry): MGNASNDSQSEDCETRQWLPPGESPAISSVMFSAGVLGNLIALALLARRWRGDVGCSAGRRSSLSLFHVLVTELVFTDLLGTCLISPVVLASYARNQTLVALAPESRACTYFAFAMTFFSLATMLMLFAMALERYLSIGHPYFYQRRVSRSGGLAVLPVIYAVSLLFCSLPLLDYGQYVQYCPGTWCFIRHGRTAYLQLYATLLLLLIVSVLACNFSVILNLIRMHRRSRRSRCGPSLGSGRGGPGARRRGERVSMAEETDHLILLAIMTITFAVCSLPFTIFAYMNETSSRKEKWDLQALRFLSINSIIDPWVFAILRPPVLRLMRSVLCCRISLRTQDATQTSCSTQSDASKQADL

Row | SMILES | IC50 [1] | half-life at 2 μM [2] | microsomal CLint at 2 μM [2] | half-life at 1 μM [3] | microsomal CLint at 1 μM [3]
1 | COc1ccc(C(=O)N2CCC(COc3ccc(-c4ccc(C#N)cc4)cc3)(n3nn[nH]c3=O)C2)cc1 (racemic) [Compound 2-2, 4′-((1-(4-methoxybenzoyl)-3-(5-oxo-4,5-dihydro-1H-tetrazol-1-yl)pyrrolidin-3-yl)methoxy)-[1,1′-biphenyl]-4-carbonitrile] | 500 to 1000 nM | 8.33 to 16.7 h | 1 to 10 µL/min/mg | – | –
2 | COc1ccc(C(=O)N2CCC(C#N)(COc3ccc(-c4ccc(C#N)cc4)cc3)C2)cc1 (racemic) [Compound 2-3, 3-(((4′-cyano-[1,1′-biphenyl]-4-yl)oxy)methyl)-1-(4-methoxybenzoyl)pyrrolidine-3-carbonitrile] | – | < 1.67 h | > 20 µL/min/mg | – | –
3 | COc1ccc2cc(OCC3(n4nn[nH]c4=O)CN(C(=O)c4ccc(F)cc4)C3)ccc2c1 [Compound 1-2, 1-(1-(4-fluorobenzoyl)-3-(((6-methoxynaphthalen-2-yl)oxy)methyl)azetidin-3-yl)-1,4-dihydro-5H-tetrazol-5-one] | – | 1.67 to 8.33 h | 1 to 10 µL/min/mg | – | –
4 | COc1ccc2cc(OCC3(C#N)CN(C(=O)c4ccc(F)cc4)C3)ccc2c1 [Compound 1-3, 1-(4-fluorobenzoyl)-3-(((6-methoxynaphthalen-2-yl)oxy)methyl)azetidine-3-carbonitrile] | – | < 1.67 h | > 20 µL/min/mg | – | –
5 | COc1ccc(C(=O)N2CCC(COc3ccc(-c4ccc(C#N)cc4)cc3)(C(=O)O)C2)cc1 (centres unmarked) [Ref, reference compound] | – | 8.33 to 16.7 h | 1 to 10 µL/min/mg | 1.67 to 8.33 h | 1 to 10 µL/min/mg

Continued, values first:

Row | IC50 [1] | half-life at 2 μM [2] | microsomal CLint at 2 μM [2] | half-life at 1 μM [3] | microsomal CLint at 1 μM [3] | SMILES
6 | < 100 nM | > 16.7 h | < 1 µL/min/mg | > 16.7 h | < 1 µL/min/mg | COc1ccc(C(=O)N2CCC(COc3ccc(-c4ccc(C#N)cc4)cc3)(C(=O)NS(C)(=O)=O)C2)cc1 (centres unmarked) [Compound 4-19, 3-(((4′-cyano-[1,1′-biphenyl]-4-yl)oxy)methyl)-1-(4-methoxybenzoyl)-N-(methylsulfonyl)pyrrolidine-3-carboxamide]
7 | 100 to 500 nM | 1.67 to 8.33 h | 1 to 10 µL/min/mg | 8.33 to 16.7 h | 1 to 10 µL/min/mg | COc1ccc(C(=O)N2CCC(COc3ccc(-c4ccc(C#N)cc4)cc3)(C(=O)NS(=O)(=O)C(F)(F)F)C2)cc1 (centres unmarked) [Compound 4-24, 3-[({4′-cyano-[1,1′-biphenyl]-4-yl}oxy)methyl]-1-(4-methoxybenzoyl)-N-trifluoromethanesulfonylpyrrolidine-3-carboxamide]
8 | 1000 to 5000 nM | – | – | – | – | COc1ccc(C(=O)N2CCC(COc3ccc(-c4ccc(C#N)cc4)cc3)(C(=O)NS(=O)(=O)C3CC3)C2)cc1 (centres unmarked) [Compound 4-30, 3-[({4′-cyano-[1,1′-biphenyl]-4-yl}oxy)methyl]-N-(cyclopropanesulfonyl)-1-(4-methoxybenzoyl)pyrrolidine-3-carboxamide]
9 | > 5000 nM | – | – | – | – | COc1ccc(C(=O)N2CCC(COc3ccc(-c4ccc(C#N)cc4)cc3)(C(=O)NS(=O)(=O)c3ccccc3)C2)cc1 (centres unmarked) [Compound 4-31, N-(benzenesulfonyl)-3-[({4′-cyano-[1,1′-biphenyl]-4-yl}oxy)methyl]-1-(4-methoxybenzoyl)pyrrolidine-3-carboxamide]
10 | > 5000 nM | – | – | – | – | N#Cc1ccc(-c2ccc(OCC3(C(=O)O)CCN(C(c4ccc(Br)cc4)C(F)(F)F)C3)cc2)cc1 (centres unmarked) [Compound 4-34, 1-[1-(4-bromophenyl)-2,2,2-trifluoroethyl]-3-[({4′-cyano-[1,1′-biphenyl]-4-yl}oxy)methyl]pyrrolidine-3-carboxylic acid]
